Like-named read-outs stand apart in the source and are kept apart here.
Key:
σ-receptor [1] = test: σ-receptor binding, [^3 H] DTG displacement on rat brain membranes (Table 1); parameters: species or system Sprague-Dowley rats; conditions: for Ki: hydrochloride, [^3 H] DTG 3 nM, 25° C., 60 minutes, rat brain membrane, read-out: Sigma [^3 H] DTG Ki
σ-receptor [2] = conditions: cited from earlier work
[3] = test system: apomorphine induced climbing; test: Suppressive action on apomorphine induced climbing (Table 2); assay type: in vivo, ICR mice, male; conditions: hydrochloride; 30 mg/kg, p.o.; 1 hour before apomorphine 2 mg/kg s.c.; climbing observed 3 minutes after 20-23 minutes
Description: Administering dopamine agohist, apomorphine in mouse resulted various abnormal behaviors, and especially, a climbing the cage has been known to be correlated with human schizophrenia. Therefore, a drug showing suppressire activity for apomorphine induced climbing in mice can be presumed to be effective as antischizophrenia activity on humans.
The compounds of the present invention were administered orally in ICR mice, male (Charles River Corp.), and after 1 hour, apomorphine 2 mg/kg was administered subcutaneously. Climbing behaviors of 3 minutes after 20-23 minutes of apomorphine administration were observed. Climbing behavior was observed by entering the mice in stainless steel made wire netting cage and measuring time remaining above the upper part of half part of the cage at observing. A climbing time of apomorphine single administered group is set as 100% and shortened time by administering the drug is shown in suppression rate.

| Compound | Ki (σ-receptor [1]) | other results |
| --- | --- | --- |
| OC12CC3CC(C1)C(CCN1CC4CCC(CC4)C1)C(C3)C2 (single isomer, unassigned) [Example 2, 3-[2-(5-hydroxy-2-adamantyl)ethyl]-3-azabicyclo[3.2.2] nonane] | 0.5 nM | – |
| ClC12CC3CC(C1)C(CCN1CC4CCC(CC4)C1)C(C3)C2 (single isomer, unassigned) [Example 3, 3-[2-(5-chloro-2-adamantyl)ethyl]-3-azabicyclo[3.2.2] nonane] | 0.27 nM | – |
| COC12CC3CC(C1)C(CCN1CC4CCC(CC4)C1)C(C3)C2 (single isomer, unassigned) [Example 4, 3-[2-(5-methoxy-2-adamantyl)ethyl]-3-azabicyclo[3.2.2] nonane] | 1.03 nM | – |
| OC(CCCN1CCN(c2ncc(F)cn2)CC1)c1ccc(F)cc1 (stereo not drawn) [BMY-14802] | – | affinity to σ-receptor (background, in words) (σ-receptor [2]; prior art): show affinity to σ-receptor |
| C1CC2CCC1CN(CCC1C3CC4CC(C3)CC1C4)C2 (stereo not drawn) [Example 1, 3-[2-(2-adamantyl)ethyl]-3-azabicyclo[3.2.2] nonane] | 0.34 nM | Suppressive rate [3]: 62% |
| C1CC2CCC1CN(CCC13CC4CC(CC(C4)C1)C3)C2 [Example 5, 3-[2-(1-adamantyl)ethyl]-3-azabicyclo[3.2.2] nonane] | 0.19 nM | – |
| CC12CC3CC(C1)CC(CCN1CC4CCC(CC4)C1)(C3)C2 [Example 6, 3-[2-(3-methyl-l-adamantyl)ethyl]-3-azabicyclo[3.2.2] nonane] | 0.45 nM | – |
| C1C2CC3CC1CC(C2)C3CCN1CC2CC3CC(C2)CC1C3 (stereo not drawn) [Example 7, 4-[2-(2-adamantyl)ethyl]-4-azatricyclo[4.3.1.1^3.8] undecane] | 0.26 nM | Suppressive rate [3]: 60% |
| OC12CC3CC(C1)C(CCN1CC4CC5CC(C4)CC1C5)C(C3)C2 (stereo not drawn) [Example 8, 4-[2-(5-hydroxy-2-adanaantyl)ethyl]-4-azatricyclo[4.3.1.1^3.8] undecane] | 1.23 nM | Suppressive rate [3]: 78% |
| ClC12CC3CC(C1)C(CCN1CC4CC5CC(C4)CC1C5)C(C3)C2 (stereo not drawn) [Example 9, 4-[2-(5-chloro-2-adamantyl)ethyl]-4-azatricyclo[4.3.1.1^3.8] undecane] | 0.55 nM | – |
| COC12CC3CC(C1)C(CCN1CC4CC5CC(C4)CC1C5)C(C3)C2 (stereo not drawn) [Example 10, 4-[2-(5-methoxy-2-adamantyl)ethyl]-4-azatricyclo[4.3.1.1^3.8] undecane] | 0.63 nM | – |
| C1C2CC3CC1CC(C2)N(CCC12CC4CC(CC(C4)C1)C2)C3 [Example 11, 4-[2-(1-adamantyl)ethyl]-4-azatricyclo[4.3.1.1^3.8] undecane] | 0.2 nM | – |
| CC12CC3CC(C1)CC(CCN1CC4CC5CC(C4)CC1C5)(C3)C2 [Example 12] | 0.29 nM | – |
| O=C(CCCN1CCC(O)(c2ccc(Cl)cc2)CC1)c1ccc(F)cc1 [haloperidol] | – | affinity to σ-receptor (background, in words) (σ-receptor [2]): bind strongly with σ-receptor |
| C[C@@H]1CN(CCCn2c3ccccc3c3ccccc32)C[C@H](C)N1 [limcazol] | – | affinity to σ-receptor (background, in words) (σ-receptor [2]; prior art): show affinity to σ-receptor |
| c1ccc(C2(N3CCCCC3)CCCCC2)cc1 [phencyclidine] | – | affinity to σ-receptor (background, in words) (σ-receptor [2]; prior art): has affinities for σ-receptor |
| Cc1ccccc1NC(=N)Nc1ccccc1C [radioactive ligand, [^3 H] 1,3-di(2-tolyl) guanidine, reference compound] | – | Kd (σ-receptor [1]; radioactive ligand for σ-receptor, used in Ki calculation, read-out: Kd (concentration of affinity of radioactive ligand for receptor)): 10.6 nM |
| haloxon | – | affinity to σ-receptor (background, in words) (σ-receptor [2]; prior art): no affinity to σ-receptor |
